The values below come from patent US20260263449A1, “METHODS AND COMPOSITIONS FOR TREATING COCAINE ADDICTION” (The Jackson Laboratory, priority 2023, published 2026).

“Also recorded” adds a separate entry of the source. Where two headings read alike, the source gives them in different places.

One data set relates to guinea pigs. The settings on record: cited from earlier work.
The next data set concerns the target 5-HT6 receptor (Homo sapiens, UniProt P50406). As to conditions: cited from earlier work.
A further data set has as its target 5-HT2A receptor (Homo sapiens, UniProt P28223). As to conditions: cited from earlier work.
In data set [1] the test system is C57BL/6NJ mice. Kind of data set: hypothermia bioassay for blood-brain barrier penetration in mice.
Description: (§1) In some embodiments, the hypothermia bioassay described herein is used to determine whether a drug passes the BBB.
(§2) Thus, if mice developed hypothermia following administration of a drug, the drug was determined to cross the blood-brain barrier. […] Both drugs were formulated using 5% Kolliphor® HS-15 and 5% NMP in saline as a vehicle, as using dimethyl sulfoxide (DMSO), a standard solvent, caused hypothermia by itself.
(§3) The temperature of mice was then monitored for 120 minutes following injection.
For the next data set, the target named is 5-HT1E receptor (Homo sapiens, UniProt P28566). As to conditions: cited from earlier work.
Another data set addresses 5-HT2B receptor (Homo sapiens, UniProt P41595). The settings on record: cited from earlier work.
The next data set has as its target 5-HT1B receptor (Homo sapiens, UniProt P28222). As to conditions: cited from earlier work.
For a further data set, the target named is T1, 5-HT1A receptor (Homo sapiens, UniProt P08908).
T1 sequence (P08908 1-422): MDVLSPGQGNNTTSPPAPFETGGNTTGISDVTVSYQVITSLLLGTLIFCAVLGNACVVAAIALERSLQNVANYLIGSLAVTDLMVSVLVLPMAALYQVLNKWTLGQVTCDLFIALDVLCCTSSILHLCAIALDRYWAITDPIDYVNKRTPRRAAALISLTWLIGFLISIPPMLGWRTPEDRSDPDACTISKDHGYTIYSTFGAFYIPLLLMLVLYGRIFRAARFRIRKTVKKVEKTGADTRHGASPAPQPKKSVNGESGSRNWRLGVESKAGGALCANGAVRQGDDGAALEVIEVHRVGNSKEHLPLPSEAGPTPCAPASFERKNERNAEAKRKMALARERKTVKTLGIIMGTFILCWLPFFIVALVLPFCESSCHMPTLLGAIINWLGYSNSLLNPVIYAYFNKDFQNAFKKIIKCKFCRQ
As to conditions: cited from earlier work.

Another data set concerns mice addicted to cocaine. The experiment in a line: cocaine intravenous self-administration (IVSA) in cocaine-addicted mice. It counts as in vivo. The protocol: The efficacy of PNU-109291 treatment in mice addicted to cocaine was tested. Mice first acquired cocaine IVSA at 0.75 mg/kg cocaine per dose at a fixed-ratio-1 reinforcement schedule, then a fixed-ratio-5 schedule until they stabilized their drug-taking behavior. The animals were then injected with descending doses of PNU-109291 prior to IVSA sessions. Doses of PNU-109291 were separated by vehicle injection, and vehicle-first versus agonist-first order was randomized and counterbalanced.

The next data set concerns the target T2, 5-HT2C receptor (Homo sapiens, UniProt P28335).
T2 sequence (P28335 33-458): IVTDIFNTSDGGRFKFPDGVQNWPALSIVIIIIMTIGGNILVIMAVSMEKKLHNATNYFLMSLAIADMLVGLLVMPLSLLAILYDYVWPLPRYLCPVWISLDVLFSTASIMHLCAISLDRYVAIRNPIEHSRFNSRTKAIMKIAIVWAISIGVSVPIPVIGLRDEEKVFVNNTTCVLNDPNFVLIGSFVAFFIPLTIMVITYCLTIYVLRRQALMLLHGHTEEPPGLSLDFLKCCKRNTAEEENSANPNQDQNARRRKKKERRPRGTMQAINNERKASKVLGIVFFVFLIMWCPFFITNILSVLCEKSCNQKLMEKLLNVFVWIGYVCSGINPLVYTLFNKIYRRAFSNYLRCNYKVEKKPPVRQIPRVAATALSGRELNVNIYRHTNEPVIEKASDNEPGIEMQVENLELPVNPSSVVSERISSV
As to conditions: cited from earlier work.

The target of another data set is 5-HT7 receptor (Homo sapiens, UniProt P34969). The settings on record: cited from earlier work.
The test system of data set [2] is C57BL/6NJ mice. The settings on record: mouse, in vivo, iv, 10 mg/kg.
Description: as §1, §2, §3

5-HT2B receptor, sequence (P41595 whole entry): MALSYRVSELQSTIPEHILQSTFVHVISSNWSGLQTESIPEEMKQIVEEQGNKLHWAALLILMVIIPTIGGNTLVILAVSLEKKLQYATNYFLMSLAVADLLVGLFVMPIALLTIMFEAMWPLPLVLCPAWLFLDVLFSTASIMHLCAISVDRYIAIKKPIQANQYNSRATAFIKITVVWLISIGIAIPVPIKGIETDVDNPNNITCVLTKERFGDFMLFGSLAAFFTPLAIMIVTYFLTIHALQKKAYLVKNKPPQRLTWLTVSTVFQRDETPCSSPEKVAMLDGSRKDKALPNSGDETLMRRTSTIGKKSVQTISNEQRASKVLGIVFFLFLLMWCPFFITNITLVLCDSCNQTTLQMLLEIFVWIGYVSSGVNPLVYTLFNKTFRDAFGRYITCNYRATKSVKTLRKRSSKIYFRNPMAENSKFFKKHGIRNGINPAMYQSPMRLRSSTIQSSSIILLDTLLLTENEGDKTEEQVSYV
5-HT7 receptor, sequence (P34969 whole entry): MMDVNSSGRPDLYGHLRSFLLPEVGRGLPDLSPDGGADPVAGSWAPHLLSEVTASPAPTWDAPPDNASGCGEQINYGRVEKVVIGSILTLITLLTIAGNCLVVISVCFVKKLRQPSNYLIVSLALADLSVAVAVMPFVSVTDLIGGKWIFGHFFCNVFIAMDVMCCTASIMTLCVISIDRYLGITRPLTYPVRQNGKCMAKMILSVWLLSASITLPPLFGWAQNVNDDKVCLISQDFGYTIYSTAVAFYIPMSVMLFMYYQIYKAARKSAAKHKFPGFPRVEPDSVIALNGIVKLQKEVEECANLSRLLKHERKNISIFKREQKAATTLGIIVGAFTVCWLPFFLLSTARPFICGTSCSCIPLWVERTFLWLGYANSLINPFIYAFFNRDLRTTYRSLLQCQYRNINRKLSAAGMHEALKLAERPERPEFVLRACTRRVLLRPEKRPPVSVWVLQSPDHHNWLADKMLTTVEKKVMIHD
5-HT1B receptor, sequence (P28222 whole entry): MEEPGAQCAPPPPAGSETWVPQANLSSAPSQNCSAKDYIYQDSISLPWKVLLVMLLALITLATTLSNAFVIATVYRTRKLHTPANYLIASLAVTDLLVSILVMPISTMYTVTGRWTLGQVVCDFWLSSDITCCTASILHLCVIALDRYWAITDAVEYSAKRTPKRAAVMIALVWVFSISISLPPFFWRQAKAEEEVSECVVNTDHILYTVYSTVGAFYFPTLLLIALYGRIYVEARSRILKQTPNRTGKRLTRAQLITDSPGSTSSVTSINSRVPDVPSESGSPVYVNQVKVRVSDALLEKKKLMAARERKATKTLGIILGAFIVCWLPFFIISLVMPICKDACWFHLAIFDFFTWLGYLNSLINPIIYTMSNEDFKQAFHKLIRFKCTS
5-HT1E receptor, sequence (P28566 whole entry): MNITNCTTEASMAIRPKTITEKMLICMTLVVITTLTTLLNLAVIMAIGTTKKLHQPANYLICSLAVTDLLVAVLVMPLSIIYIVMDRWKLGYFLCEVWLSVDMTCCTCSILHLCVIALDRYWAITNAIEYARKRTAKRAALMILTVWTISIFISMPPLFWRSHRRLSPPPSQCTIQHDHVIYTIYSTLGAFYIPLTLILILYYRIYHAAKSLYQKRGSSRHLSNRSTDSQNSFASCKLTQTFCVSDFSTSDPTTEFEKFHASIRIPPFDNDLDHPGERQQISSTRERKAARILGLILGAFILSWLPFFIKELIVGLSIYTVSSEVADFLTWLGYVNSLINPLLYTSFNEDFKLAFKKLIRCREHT
5-HT2A receptor, sequence (P28223 whole entry): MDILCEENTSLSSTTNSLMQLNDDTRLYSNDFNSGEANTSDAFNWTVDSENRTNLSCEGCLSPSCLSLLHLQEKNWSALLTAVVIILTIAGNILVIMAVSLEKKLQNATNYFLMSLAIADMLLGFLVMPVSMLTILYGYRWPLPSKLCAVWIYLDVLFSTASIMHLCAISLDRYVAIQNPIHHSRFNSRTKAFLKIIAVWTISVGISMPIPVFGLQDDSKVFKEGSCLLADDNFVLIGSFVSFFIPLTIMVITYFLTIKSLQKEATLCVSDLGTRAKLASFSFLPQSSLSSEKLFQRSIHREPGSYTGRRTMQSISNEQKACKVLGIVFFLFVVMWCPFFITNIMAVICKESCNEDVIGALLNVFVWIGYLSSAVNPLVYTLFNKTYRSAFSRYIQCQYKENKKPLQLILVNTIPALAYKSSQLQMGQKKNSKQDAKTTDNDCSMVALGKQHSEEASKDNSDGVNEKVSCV
5-HT6 receptor, sequence (P50406 whole entry): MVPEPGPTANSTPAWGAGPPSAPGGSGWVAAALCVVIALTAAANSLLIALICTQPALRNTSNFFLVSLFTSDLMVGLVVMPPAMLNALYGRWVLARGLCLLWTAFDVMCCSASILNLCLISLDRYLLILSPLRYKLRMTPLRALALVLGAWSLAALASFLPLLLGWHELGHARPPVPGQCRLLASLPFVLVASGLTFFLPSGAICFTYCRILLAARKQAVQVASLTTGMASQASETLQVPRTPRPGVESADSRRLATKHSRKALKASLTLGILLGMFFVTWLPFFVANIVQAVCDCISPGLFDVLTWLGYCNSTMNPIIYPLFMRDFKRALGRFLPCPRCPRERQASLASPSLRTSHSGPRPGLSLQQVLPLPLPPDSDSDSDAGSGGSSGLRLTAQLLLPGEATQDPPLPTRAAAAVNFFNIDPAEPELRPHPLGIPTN

In the case of `COc1ccc(CNC(=O)/C=C/c2ccc3[nH]cc(CCN(C)C)c3c2)cc1` [GR46611], the central hypothermia entry with guinea pigs (injected directly into the lateral ventricles of guinea pigs) is given as “caused central hypothermia”.

As to `CNC(=O)c1ccc2c(c1)CCO[C@H]2CCN1CCN(c2ccc(OC)cc2)CC1` [PNU-109291, (S)-3,4-Dihydro-1-[2-[4-(4-methoxyphenyl)-1-piperazinyl]ethyl]-N-methyl-1H-2-benzopyran-6-carboxamide], on 5-HT6 receptor, the “activity at 5-HT6 receptor” value is on record as “no activity”. In addition, on 5-HT2A receptor, the “selectivity for 5-HTR1D over 5-HT2A receptor” value was > 600 -fold. In the data set on C57BL/6NJ mice [1] (intravenous administration in mice, dose not given), the central hypothermia entry is listed as “caused central hypothermia at levels comparable to a known BBB-permeable drug”. Further, the “central hypothermia (internal temperature)” value with C57BL/6NJ mice [1] (intravenous injection, 10 mg/kg, temperature monitored for 120 minutes, vehicle 5% Kolliphor HS-15 and 5% NMP in saline) is recorded as “induced central hypothermia”. Also, the “blood-brain barrier penetration, inferred from hypothermia” value in the data set with C57BL/6NJ mice [1] (intravenous, 10 mg/kg, mice) is “can bypass the blood-brain barrier; also recorded: penetrates the blood-brain barrier”. Besides, at 5-HT1E receptor, the “activity at 5-HT1E receptor” value is “no activity”. Also, at 5-HT2B receptor, the “activity at 5-HT2B receptor” value was “no activity”. Moreover, the “activity at 5-HT1B receptor” value at 5-HT1B receptor was “no activity”. In addition, on 5-HT1A receptor, the “selectivity for 5-HTR1D over 5-HT1A receptor” value is listed as > 600 -fold. The “volitional cocaine-taking (total infusions of cocaine self-administered)” value in the data set with mice addicted to cocaine (intravenous pre-treatment, 10 mg/kg body weight, before IVSA session) is reported as “significant dose effect; also recorded: reduced volitional cocaine-taking behavior”. For the same compound, the inactive lever presses entry in the data set on mice addicted to cocaine (intravenous pre-treatment, range of doses) is “no differences in inactive lever presses; also recorded: no effect”. In addition, the “cocaine self-administration, dose dependence” value in the data set with mice addicted to cocaine (range of doses, cocaine-addicted mice) is “dose-dependent decrease in cocaine self-administration”. For the same compound, at 5-HT2C receptor, the “activity at 5-HT2C receptor” value was “no activity”. Further, the “activity at 5-HT7 receptor” value at 5-HT7 receptor is “no activity”.

Regarding `CNS(=O)(=O)Cc1ccc2[nH]cc(CCN(C)C)c2c1` [sumatriptan], the central hypothermia entry in the data set with guinea pigs (injected subcutaneously, guinea pigs) was “does not”.

In the case of `CN(C)CCc1c[nH]c2ccc(C[C@H]3COC(=O)N3)cc12` [zolmitriptan], the “blood-brain barrier penetration, inferred from hypothermia” value in the data set with C57BL/6NJ mice [2] is recorded as “can bypass the blood-brain barrier”.
